The numbers were not newly measured in PMC5133935, “Hydrostatin-TL1, an Anti-Inflammatory Active Peptide from the Venom Gland of Hydrophis cyanocinctus in the South China Sea” (International Journal of Molecular Sciences, 2016), which cites them from elsewhere.

The data set relates to TNF-α. As to conditions: cited from earlier work. From the text:
Snake-derived products have been used as traditional Chinese medicines for centuries in China; however, their mechanisms of action and active constituents are still unknown. Snake venom, which is a mixture of proteins and peptides, has various biological properties including antitumor, anti-inflammatory, anti-stroke, and analgesic activities. […] Venom from s ...

As to Cathelicidin-BF, the “antimicrobial and anti-inflammatory properties” value is “both antimicrobial and anti-inflammatory properties”; the “expression and secretion of TNF-α” value was “decreases the expression and secretion of TNF-α”.
